Results on four compounds are retold here after PMC10726475, “Atypical N-Alkyl to N-Noralkoxy Switch in a Dual cSRC/BCR-ABL1 Kinase Inhibitor Improves Drug Efflux and hERG Affinity” (ACS Medicinal Chemistry Letters, 2023).

One data set concerns Molt-4 cells. Briefly: Cell viability assay (CellTiter-Glo), Molt-4. The format is cell-based, human. The following applies: BCR-ABL1 negative. In general terms: In ATP-based viability assays light output follows the ATP content of the culture.
The subject of the next data set is MEG-01 cells. Briefly: Cell viability assay (CellTiter-Glo), MEG-01. The format is cell-based, human. The note with it: read-out: IC50 (72 h), MEG-01 Cell Line, mean ± SEM, n = 3, unadjusted for FBS.
In another data set the test system is SUP-B15 cells. Briefly: Cell viability assay (CellTiter-Glo), SUP-B15. The class given is cell-based, human. The following applies: read-out: IC50 (72 h), SUP-B15 Cell Line, mean ± SEM, n = 3, unadjusted for FBS.
Another data set concerns KU812 cells. Briefly: Cell viability assay (CellTiter-Glo), KU812. The note with it: read-out: IC50 (72 h), KU812 Cell Line, mean ± SEM, n = 3, unadjusted for FBS. The format is cell-based, human.
For the next data set, the system named is Caco-2 cells. Briefly: Caco-2 cell permeability. A general note: Caco-2 monolayers are a common model of the intestinal barrier.
A further data set is described as follows: in vitro. The note with it: human, Caco-2.
The subject of a further data set is P-gp (MDR1). Briefly: in vitro. The note with it: dog, MDCK-MDR1.
For data set [1], the system named is MDCKII-MDR1 cells. The following applies: dog, MDCK-MDR1.
Description: (§1) Abbreviations: Papp, apparent permeability; AP, apical; BL, basolateral.
The target in the next data set is CYP2D6 (Homo sapiens, UniProt P10635). In words: in vitro. The following applies: both, microsomes, CYP2D6 Inhibition percentage(%) at Top conc.
CYP2D6, sequence (P10635 whole entry): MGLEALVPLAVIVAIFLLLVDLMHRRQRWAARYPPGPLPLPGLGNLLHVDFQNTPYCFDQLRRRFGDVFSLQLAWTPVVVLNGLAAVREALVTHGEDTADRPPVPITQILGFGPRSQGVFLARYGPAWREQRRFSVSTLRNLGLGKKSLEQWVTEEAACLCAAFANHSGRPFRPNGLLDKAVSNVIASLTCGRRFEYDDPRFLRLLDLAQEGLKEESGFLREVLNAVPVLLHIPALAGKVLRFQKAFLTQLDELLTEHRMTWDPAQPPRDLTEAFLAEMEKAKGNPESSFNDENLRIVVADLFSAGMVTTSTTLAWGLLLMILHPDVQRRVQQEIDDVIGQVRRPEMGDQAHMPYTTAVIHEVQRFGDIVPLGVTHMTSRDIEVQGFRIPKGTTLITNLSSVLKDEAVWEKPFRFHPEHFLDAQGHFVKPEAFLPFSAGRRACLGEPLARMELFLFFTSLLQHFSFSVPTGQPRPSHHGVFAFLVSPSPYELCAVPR
Data set [2] in a line: Metabolic stability in human hepatocytes. The format is in vitro ADME.
Data set [3] is described as follows: Metabolic stability in rat hepatocytes. The format is in vitro ADME.
Data set [4] in a line: Metabolic stability in rat liver microsomes. The class given is in vitro ADME. (In general: Liver microsomes are vesicles of endoplasmic reticulum, rich in cytochrome P450 enzymes.)
On the set-up of data set [5]: method as in NDA application no. 203341 Pharmacology Review(s) page 40. The following applies: nude mice, 50 mg/kg po and 5 mg/kg iv dosing, ref NDA application no. 203341 Pharmacology Review(s) page 40; cited from earlier work.
Data set [6] is described as follows: Metabolic stability in human liver microsomes. The format is in vitro ADME.
Data set [7] can be described thus: logD7.4 by shake-flask method. The format is physicochemical. The note with it: pH 7.4.
A short description of data set [8]: Solubility in aqueous buffer at pH 7.4. The class given is physicochemical. The note with it: aqueous buffer at pH 7.4, n = 1; read-out: aq sol.
Data set [9] is described as follows: Plasma protein binding by equilibrium dialysis, human. The class given is in vitro ADME.
Description: (§2) Human plasma (mixed gender) Ltd-People’s Hospital of Shandong Weifang Hi-
(§3) Tech Industrial Development Zone (Batch No. P-
(§4) Rat plasma (SD/mixed gender) BiolVT (Batch No. RAT501985)
(§5) Mouse plasma (CD-1/mixed gender) IPHASE or BiolVT (Batch No. MSE427337)
Data set [10] relates to MDCKII-MDR1 cells. In words: MDCKII-MDR1 cell permeability.
Description: as §1
Data set [11] is described as follows: Plasma protein binding by equilibrium dialysis, rat. The class given is in vitro ADME. The following applies: for fu, plasma % / %Unbound: 5 μM, equilibrium dialysis.
Description: as §2, §3, §4, §5

In brackets after ≈: the same amount, converted by molar mass. Like-named read-outs stand apart in the source and are kept apart here.

Description for P-gp (MDR1): as §1

The IC50 is the point on the concentration scale where inhibition reaches its midpoint. `N.N.[Cl][Pt][Cl]` [Cisplatin, cisplatin]: the IC50 with Molt-4 cells (read-out: IC50 (72 h), Molt-4 Cell Line, 72 h) is 1340 ± 89 nM; in the data set with MEG-01 cells, 5100 ± 318 nM; with SUP-B15 cells, 987 ± 36 nM; in the data set on KU812 cells it was 1500 ± 103 nM.
For orientation: Papp A→B means how fast a substance crosses the layer from the apical side. Higher therefore signals ready permeation. The term Papp B→A denotes how fast a substance crosses the layer from the basolateral side. A word on the efflux ratio: it is the permeability from basolateral to apical divided by that in the opposite direction, in the common usage. Take `COCCc1ccc(OCC(O)CNC(C)C)cc1` (stereo not shown) [Metoprolol]: the “Recovery% (BL-AP)” value with Caco-2 cells came to 100.41%. Also, in “in vitro”, the Papp A→B at 2 h, 5 μM was determined as 23.1 ×10⁻⁶ cm/s; the Papp B→A at 2 h, 5 μM came to 21.8 ×10⁻⁶ cm/s; the efflux ratio at 2 h, 5 μM came to 0.95; the recovery amounted to 106%. In the data set on P-gp (MDR1), the apical-to-basolateral permeability (Papp A→B) at 2 h, 1 μM is 27.9 ×10⁻⁶ cm/s; the Papp B→A at 2 h, 1 μM was 31 ×10⁻⁶ cm/s; the efflux ratio at 2 h, 1 μM turned out to be 1.11; the recovery is 99.9%. Further, the “Recovery% (BL-AP)” value in the data set with MDCKII-MDR1 cells [1] turned out to be 96.11%.
Broadly, the inhibition is the relative decrease from the control value, in per cent. Compound `Fc1ccc([C@@H]2CCNC[C@H]2COc2ccc3c(c2)OCO3)cc1` [Paroxetine] came in with an inhibition at 20 min on CYP2D6 of 91.7%.
Broadly, the half-life is how long it takes for the measured level to halve. Low readings indicate rapid decline, high ones slow decline. What is called hepatocyte CLint is the capacity of the preparation to metabolise the compound, expressed as a volume cleared per time. A higher hepatocyte CLint goes with rapid turnover. Broadly, the Cmax is the maximum level reached in the sampled fluid or tissue. A word on the logD: it is lipophilicity at a set pH, counting ionised and neutral species. In general, fraction remaining refers to the share of the starting amount still present when the sample was taken. Consider `COc1cc(Nc2c(C#N)cnc3cc(OCCCN4CCN(C)CC4)c(OC)cc23)c(Cl)cc1Cl` [bosutinib], for which the “Remaining Percentages, 0.5 min” value in data set [2] and in [3] was 100.00% each time. Further, the “Remaining Percentages, 15 min” value in data set [2] was 73.99%; in data set [3], 50.17%. Moreover, the “Remaining Percentages, 30 min” value is listed as 79.28% in [2] and 21.78% in [3]. Further, the “Remaining Percentages, 60 min” value in data set [2] came out at 53.95%; in [3], 5.83%. Also, the entries for the “Remaining Percentages, 90 min” value in [2] and in data set [3] were 34.15% and 1.83%, respectively. The “Remaining Percentages, 120 min” value in [2] was 20.73%; in data set [3], 0.73%. Besides, the half-life at 2 h worked out at 54.9 min in data set [2] (both sexes) and 13.4 min in [3] (male, SD). For the same compound, the hepatocyte CLint at 2 h in data set [2] (both sexes) was found to be 25.3 µL/min/1e6 cells; in [3] (male, SD), 103 µL/min/1e6 cells. Also, the results for the “Recovery% (BL-AP)” value in the data set with Caco-2 cells and in the data set with MDCKII-MDR1 cells [10] were 70.73% and 65.52%, respectively. Further, the IC50 in the data set on Molt-4 cells (Homo sapiens, MOLT-4, read-out: IC50, Molt-4) is greater than 2000 nM. The recovery in the data set on P-gp (MDR1) is 56%; in [9] (both sexes) it was 94%; in data set [11] (both sexes, SD), 91.1%. For the same compound, the “Remaining Percentage, 0.5 min” value in [4] (+Cofactors), in [4] (-Cofactors), in data set [6] (+Cofactors) and in data set [6] (-Cofactors) was 100.00% each time. Further, the “Remaining Percentage, 15 min” value was 14.79% in data set [4] (+Cofactors) and 12.40% in [6] (+Cofactors). Besides, the “Remaining Percentage, 30 min” value in data set [4] (+Cofactors) came out at 5.02%; in data set [6] (+Cofactors), 2.94%. Further, the figures for the “Remaining Percentage, 45 min” value in data set [4] (+Cofactors) and in [6] (+Cofactors) were 2.62% and 1.16%, respectively. The half-life at 1 h in data set [4] (male, SD, pooled) is 5.3 min; in data set [6] (both sexes, pooled) it was 4.8 min. Moreover, the microsomal CLint at 1 h was determined as 264 µL/min/mg in data set [4] (male, SD, pooled, read-out: LMClint) and 288 µL/min/mg in data set [6] (both sexes, pooled, read-out: LMClint). Moreover, the AUCinf in [5] is 11 677 h·nM. In addition, the Cmax in data set [5] was 1510 nM. Also, the “Remaining Percentage, 60 min” value in [6] (+Cofactors) is “BLOD”; in [6] (-Cofactors), 91.23%. Also, in data set [7], the logD at 2 h is 3.1. Besides, the solubility in data set [8] was determined as 14 µM (≈ 7.43 µg/mL). Further, the “fu, plasma % / %Unbound” value in [9] (5 μM, equilibrium dialysis) is 4.53%; in data set [11] it was 7.2%; in [11] (listed as Bosutinib), 7.20%. For the same compound, in data set [9] (both sexes, 5 μM, equilibrium dialysis, read-out: fu, plasma % / %Unbound), the fraction unbound at 6 h, 5 µM came out at 0.045. Moreover, the fraction unbound at 5 μM in data set [9] (both sexes, read-out: %Bound (converted)) is 0.0453; in [11] (both sexes, SD, read-out: fu, plasma % / %Unbound (converted)) it was 0.072. This compound displayed a share remaining at 6 h, 5 μM in data set [11] (both sexes, SD) of 90.7%.
